Assay results published in ChEMBL document CHEMBL3784987, “Synthesis and preliminary evaluation of 5,7-dimethyl-2-aryl-3H-pyrrolizin-3-ones as angiogenesis inhibitors” (Bioorg Med Chem Lett, 2016).
Calls of active or inactive are those of the source. The calls are words filed in the database; no cut-off is given here.

Columns and labels:
HUVEC [1] = assay: Antiangiogenic activity in human HUVEC cells assessed as angiogenesis rate at 10 uM after 5 hrs by endothelial tube formation assay relative to control; format: functional
Thoracic aorta [2] = assay: Antiangiogenic activity in Fischer 344 rat thoracic aorta assessed as field of view occupancy at 10 microg/ml after 5 days light microscopic analysis(reference value: 86 %); format: functional
[3] = Cytotoxicity against mouse SVEC4-10 cells assessed as cell viability after 24 hrs by MTS assay; format: cell-based; conditions: SVEC4-10, 24 h
Thoracic aorta [4] = assay: Antiangiogenic activity in Fischer 344 rat thoracic aorta assessed as field of view occupancy at 1 microg/ml after 5 days by light microscopic analysis (reference value: 86 %); format: functional
HUVEC [5] = assay: Antiangiogenic activity in human HUVEC cells assessed as angiogenesis rate at 1 uM after 5 hrs by endothelial tube formation assay relative to control; format: functional

Structure (SMILES)	Activity (HUVEC [1])	also measured
Cc1cc(C)n2c1C=C(c1cccc(Br)c1)C2=O	inactive	
Cc1cc(C)n2c1C=C(c1ccccc1)C2=O	68.4%	Activity (Thoracic aorta [2]): Active
Cc1cc(C)n2c1C=C(c1ccccc1Br)C2=O	Active	
Cc1cc(C)n2c1C=C(c1ccccc1[N+](=O)[O-])C2=O	29.7%	Activity (Thoracic aorta [2]): 4%; IC50 [3]: 32 µM; Activity (Thoracic aorta [4]): inactive; Activity (HUVEC [5]): 74%
Cc1cc(C)n2c1C=C(c1ccc(F)cc1)C2=O	inactive	
Cc1cc(C)n2c1C=C(c1ccc([N+](=O)[O-])cc1)C2=O	inactive	
Cc1ccccc1C1=Cc2c(C)cc(C)n2C1=O	Active	
Cc1cc(C)n2c1C=C(c1cccc(Cl)c1)C2=O	inactive	
Cc1cc(C)n2c1C=C(c1ccccc1F)C2=O	Active	
Cc1cc(C)c(/C=C2\C(=O)Nc3ccccc32)[nH]1 [SEMAXANIB]		Activity (Thoracic aorta [2]): 10%; Activity (Thoracic aorta [4]): 61%
Cc1cccc(C2=Cc3c(C)cc(C)n3C2=O)c1	inactive	
COc1ccccc1C1=Cc2c(C)cc(C)n2C1=O	Active	
Cc1cc(C)n2c1C=C(c1cccc([N+](=O)[O-])c1)C2=O	inactive	
Cc1cc(C)n2c1C=C(c1ccccc1Cl)C2=O	inactive	
Cc1cc(C)n2c1C=C(c1ccc(Cl)cc1)C2=O	inactive	
Cc1cc(C)n2c1C=C(c1ccc(Br)cc1)C2=O	inactive	
Cc1ccc(C2=Cc3c(C)cc(C)n3C2=O)cc1	inactive	
CCN(CC)CCNC(=O)c1c(C)[nH]c(/C=C2\C(=O)Nc3ccc(F)cc32)c1C [SUNITINIB]	Active	IC50 [3]: 8 µM
Cc1cc(C)n2c1C=C(c1cccc(F)c1)C2=O	inactive	
COc1cccc(C2=Cc3c(C)cc(C)n3C2=O)c1	inactive	
